This note sets out measurements from patent publication US10611750B2, “Tetrahydroquinoline compositions as bet bromodomain inhibitors” (FORMA Therapeutics, Inc., priority 2013, dated 2020).

Assay [1] deals with T1, BRD4 Bromodomain 1 (BRD4 BD1) (Homo sapiens, UniProt O60885).
T1 construct: 44-168 and BRD4 BD2
Description: AlphaScreen binding assay, BRD4 BD1. Particulars: His-tagged BRD4 BD1 50 nM, biotinylated H4 (1-21) K5/8/12/16 tetra-acetylated peptide 50 nM, compounds listed under IC50 range headings. In a few lines: (§1)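 An AlphaScreen competition format was used with His-BRD4 BD1 or BD2 and biotin-H4 K5/8/12/16-acetyl peptide, each at matched final levels of 50 nM (BD1) or 100 nM (BD2). Incubation in HEPES/NaCl buffer with 0.1% BSA and 0.01% Triton X-100 ran ≥1 h before IC50 determination.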

Assay [2] concerns the target T2, BRD4 Bromodomain 2 (BRD4 BD2) (Homo sapiens, UniProt O60885).
T2 construct: 333-460 were cloned, expressed, and purified to homogeneity
Description: AlphaScreen binding assay, BRD4 BD2. Particulars: His-tagged BRD4 BD2 100 nM, biotinylated H4 (1-21) K5/8/12/16 tetra-acetylated peptide 100 nM, compounds listed under IC50 range headings. The method in brief:
as §1

Assay [3] has as its system acute myelocytic leukemia (AML) cell line MV4-11. Description: Oncology cell growth assay (3-day proliferation, CellTiter-Glo). It is filed as cell-based. Particulars: Homo sapiens, MV4-11, 72 h, MV4-11 cells, 3000 cells/well, compounds listed under IC50 range headings, read-out: MV411 IC50 (gIC50, inhibition of proliferation). The method in brief: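 MV4-11 AML cells (RPMI 1640, 10% FBS) plated at 3000 cells/well and exposed 72 h to compound at final 10 to 0.0045 μM (3-fold series). Viability read by CellTiter-Glo luminescence; gIC50 from four-parameter logistic fit between DMSO control and no-cell background.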
In general terms: Cellular ATP, detected with luciferase, serves as a proxy for viable cell number.

Regarding `CC(=O)N1c2ccc(-c3cnn(C4CCNCC4)c3)c(Oc3ncc(F)cn3)c2CC[C@@H]1C` [I-511], the IC50 in assay [1] was 100 to 1000 nM; in assay [2], less than 50 nM; in assay [3], less than 500 nM.
Taken in the same sequence, the figures for `CC(=O)N1c2ccc(-c3cnn(C4CCNCC4)c3)c(Oc3ccc(C(F)(F)F)cn3)c2CC[C@@H]1C` [I-512] were 100 to 1000 nM, 50 to 500 nM and less than 500 nM.
On the same counts, the results for `CC(=O)N1c2ccc(-c3cnn(C4CCNCC4)c3)c(Oc3ncccn3)c2CC[C@@H]1C` [I-513] are 1000 to 10000 nM, 50 to 500 nM and less than 500 nM.
Taken in the same sequence, the figures for `CC(=O)N1c2ccc(-c3cnn(C4CCNCC4)c3)c(Oc3nccc(C(F)(F)F)n3)c2CC[C@@H]1C` [I-514] were 1000 to 10000 nM, 50 to 500 nM and less than 500 nM.
On to `CC(=O)N1c2ccc(-c3cnn(C4CCNCC4)c3)c(Oc3ccnc(C(F)(F)F)n3)c2CC[C@@H]1C` [I-515], for which the IC50 in assay [1] fell in the range of 1000 to 10000 nM; in assay [2] it was 50 to 500 nM; in assay [3], 500 to 1000 nM.
On the same counts, the results for `CC(=O)N1c2ccc(-c3cnn(C4CCNCC4)c3)c(Oc3cc(N4CCOCC4)ncn3)c2CC[C@@H]1C` [I-516] are 1000 to 10000 nM, 50 to 500 nM and 500 to 1000 nM.
For `CC(=O)N1c2ccc(-c3cnn(C4CCNCC4)c3)c(Oc3cc(C4CC4)ncn3)c2CC[C@@H]1C` [I-517], the IC50 in assay [1] is 1000 to 10000 nM; in assay [2], 50 to 500 nM; in assay [3] it was less than 500 nM.
Consider `CC(=O)N1c2ccc(-c3cnn(C4CCNCC4)c3)c(Oc3ncc(C4CC4)cn3)c2CC[C@@H]1C` [I-518], for which the results for the IC50 in assay [1], in assay [2] and in assay [3] were 100 to 1000 nM, 50 to 500 nM and less than 500 nM, respectively.
In the case of `CC(=O)N1c2ccc(-c3cnn(C4CCNCC4)c3)c(Oc3ncc(C(F)(F)F)cn3)c2CC[C@@H]1C` [I-519], the IC50 in assay [1] is 100 to 1000 nM; in assay [2], 50 to 500 nM; in assay [3] it was less than 500 nM.
For `CC(=O)N1c2ccc(-c3cnn(C4CCNCC4)c3)c(Oc3ncccc3C(N)=O)c2CC[C@@H]1C` [I-520], the IC50 is 1000 to 10000 nM in assay [1], 50 to 500 nM in assay [2] and greater than 1000 nM in assay [3].
On the same counts, the results for `CC(=O)N1c2ccc(-c3cnn(C4CCNCC4)c3)c(Oc3ncc(C(F)(F)F)cc3F)c2CC[C@@H]1C` [I-521] are 100 to 1000 nM, less than 50 nM and less than 500 nM.
Consider `COC(=O)c1ccc(Oc2c(-c3cnn(C4CCNCC4)c3)ccc3c2CC[C@H](C)N3C(C)=O)nc1` [I-522], for which the IC50 in assay [1] lay in the range of 1000 to 10000 nM; in assay [2] it was 50 to 500 nM; in assay [3], 500 to 1000 nM.
On the same counts, the results for `CC(=O)N1c2ccc(-c3cnn(C4CCNCC4)c3)c(Oc3ccc(C(N)=O)cn3)c2CC[C@@H]1C` [I-523] are 1000 to 10000 nM, 50 to 500 nM and greater than 1000 nM.
In the case of `COC(=O)N1c2ccc(-c3cnn(C4CCNCC4)c3)c(Oc3ccc(C(F)(F)F)cn3)c2CC[C@@H]1C` [I-524], the IC50 is 1000 to 10000 nM in assay [1], 50 to 500 nM in assay [2] and less than 500 nM in assay [3].
On the same counts, the results for `COC(=O)N1c2ccc(-c3cnn(C4CCNCC4)c3)c(Oc3ncccn3)c2CC[C@@H]1C` [I-525] are 1000 to 10000 nM, 50 to 500 nM and less than 500 nM.
Taken in the same sequence, the figures for `COC(=O)N1c2ccc(-c3cnn(C4CCNCC4)c3)c(Oc3cnccn3)c2CC[C@@H]1C` [I-526] were 1000 to 10000 nM, 50 to 500 nM and less than 500 nM.
Taken in the same sequence, the figures for `COC(=O)N1c2ccc(-c3cnn(C4CCNCC4)c3)c(Oc3ncccc3C(F)(F)F)c2CC[C@@H]1C` [I-527] were 1000 to 10000 nM, 50 to 500 nM and less than 500 nM.
With `COC(=O)N1c2ccc(-c3cnn(C4CCNCC4)c3)c(Oc3nccc(C(F)(F)F)n3)c2CC[C@@H]1C` [I-528], the results for the IC50 in assay [1], in assay [2] and in assay [3] were 1000 to 10000 nM, 50 to 500 nM and less than 500 nM, respectively.
For `COC(=O)N1c2ccc(-c3cnn(C4CCNCC4)c3)c(Oc3ccnc(C(F)(F)F)n3)c2CC[C@@H]1C` [I-529], the results for the IC50 in assay [1], in assay [2] and in assay [3] were 1000 to 10000 nM, 50 to 500 nM and less than 500 nM, respectively.
Taken in the same sequence, the figures for `COC(=O)N1c2ccc(-c3cnn(C4CCNCC4)c3)c(Oc3cc(N4CCOCC4)ncn3)c2CC[C@@H]1C` [I-530] were no less than 10000 nM, no less than 500 nM and greater than 1000 nM.
Take `COC(=O)N1c2ccc(-c3cnn(C4CCNCC4)c3)c(Oc3cc(C4CC4)ncn3)c2CC[C@@H]1C` [I-531]: the IC50 in assay [1] is 1000 to 10000 nM; in assay [2], 50 to 500 nM; in assay [3] it was less than 500 nM.
Regarding `COC(=O)N1c2ccc(-c3cnn(C4CCNCC4)c3)c(Oc3ncc(C4CC4)cn3)c2CC[C@@H]1C` [I-532], the IC50 in assay [1] fell in the range of 1000 to 10000 nM; in assay [2] it was 50 to 500 nM; in assay [3], 500 to 1000 nM.
On the same counts, the results for `COC(=O)N1c2ccc(-c3cnn(C4CCNCC4)c3)c(Oc3ncc(F)cn3)c2CC[C@@H]1C` [I-533] are 1000 to 10000 nM, 50 to 500 nM and less than 500 nM.
For `COC(=O)N1c2ccc(-c3cnn(C4CCNCC4)c3)c(Oc3ncc(C(F)(F)F)cn3)c2CC[C@@H]1C` [I-534], the IC50 fell in the range of 1000 to 10000 nM in assay [1], 50 to 500 nM in assay [2] and 500 to 1000 nM in assay [3].
For the compound `COC(=O)N1c2ccc(-c3cnn(C4CCNCC4)c3)c(Oc3ncc(C)cn3)c2CC[C@@H]1C` [I-535], the IC50 was 1000 to 10000 nM in assay [1], 50 to 500 nM in assay [2] and less than 500 nM in assay [3].
`COC(=O)N1c2ccc(-c3cnn(C4CCNCC4)c3)c(Oc3ncc(C(F)(F)F)cc3F)c2CC[C@@H]1C` [I-536]: the IC50 was 1000 to 10000 nM in assay [1], 50 to 500 nM in assay [2] and 500 to 1000 nM in assay [3].
On the same counts, the results for `COC(=O)c1ccc(Oc2c(-c3cnn(C4CCNCC4)c3)ccc3c2CC[C@H](C)N3C(=O)OC)nc1` [I-537] are 1000 to 10000 nM, 50 to 500 nM and 500 to 1000 nM.
On the same counts, the results for `COC(=O)N1c2ccc(-c3cnn(C4CCNCC4)c3)c(Oc3ccc(C(N)=O)cn3)c2CC[C@@H]1C` [I-538] are 1000 to 10000 nM, 50 to 500 nM and greater than 1000 nM.
Consider `C[C@H]1CCc2c(ccc(-c3cnn(C4CCNCC4)c3)c2Oc2ncccc2C(F)(F)F)N1C(=O)C1CC1` [I-539], for which the results for the IC50 in assay [1], in assay [2] and in assay [3] were 1000 to 10000 nM, 50 to 500 nM and less than 500 nM, respectively.
Consider `C[C@H]1CCc2c(ccc(-c3cnn(C4CCNCC4)c3)c2Oc2ncccc2C#N)N1C(=O)C1CC1` [I-540], for which the IC50 was 100 to 1000 nM in assay [1], 50 to 500 nM in assay [2] and less than 500 nM in assay [3].
On the same counts, the results for `C[C@H]1CCc2c(ccc(-c3cnn(C4CCNCC4)c3)c2Oc2ccc(C(F)(F)F)cn2)N1C(=O)C1CC1` [I-541] are 1000 to 10000 nM, 50 to 500 nM and less than 500 nM.
On the same counts, the results for `CC(=O)N1c2ccc(-c3cnn(CCO)c3)c(Oc3ncc(C(F)(F)F)cn3)c2CC[C@@H]1C` [I-542] are 100 to 1000 nM, 50 to 500 nM and less than 500 nM.
Consider `CC(=O)N1c2ccc(-c3cnn(CCO)c3)c(Oc3ncc(F)cn3)c2CC[C@@H]1C` [I-543], for which the IC50 is 100 to 1000 nM in assay [1], 50 to 500 nM in assay [2] and less than 500 nM in assay [3].
In the case of `CC(=O)N1c2ccc(-c3cnn(CCO)c3)c(Oc3ncc(C(C)C)cn3)c2CC[C@@H]1C` [I-545], the values for the IC50 in assay [1], in assay [2] and in assay [3] were 100 to 1000 nM, less than 50 nM and less than 500 nM, respectively.
Taken in the same sequence, the figures for `COc1cnc(Oc2c(-c3cnn(CCO)c3)ccc3c2CC[C@H](C)N3C(C)=O)nc1` [I-546] were 100 to 1000 nM, less than 50 nM and 500 to 1000 nM.
On the same counts, the results for `CC(=O)N1c2ccc(-c3cnn(CCO)c3)c(Oc3ncc(C4CC4)cn3)c2CC[C@@H]1C` [I-547] are 100 to 1000 nM, less than 50 nM and less than 500 nM.
Taken in the same sequence, the figures for `CC(=O)N1c2ccc(-c3ccc4c(c3)CCN4S(C)(=O)=O)c(Oc3ncc(F)cn3)c2CC[C@@H]1C` [I-548] were 1000 to 10000 nM, 50 to 500 nM and less than 500 nM.
Consider `CC(=O)N1c2ccc(-c3ccc(S(C)(=O)=O)cc3)c(Oc3ncc(F)cn3)c2CC[C@@H]1C` [I-549], for which the results for the IC50 in assay [1], in assay [2] and in assay [3] were 1000 to 10000 nM, 50 to 500 nM and 500 to 1000 nM, respectively.
`CC(=O)N1c2ccc(-c3cnn(CCS(C)(=O)=O)c3)c(Oc3ncc(F)cn3)c2CC[C@@H]1C` [I-550]: the IC50 in assay [1] is 100 to 1000 nM; in assay [2], less than 50 nM; in assay [3], less than 500 nM.
`CC(=O)N1c2ccc(-c3cnn(CC(C)(C)O)c3)c(Oc3ncc(F)cn3)c2CC[C@@H]1C` [I-551]: the IC50 in assay [1] is 100 to 1000 nM; in assay [2] it was less than 50 nM; in assay [3], less than 500 nM.
With `CC(=O)N1c2ccc(-c3cnn(C(C)(C)CO)c3)c(Oc3ncc(F)cn3)c2CC[C@@H]1C` [I-552], the IC50 is 100 to 1000 nM in assay [1], less than 50 nM in assay [2] and less than 500 nM in assay [3].
